According to ChEMBL document CHEMBL1828567, “2-Phenyl and 2-heterocyclic-4-(3-(pyridin-2-yl)-1H-pyrazol-4-yl)pyridines as inhibitors of TGF-β1 and activin A signalling” (Bioorg Med Chem Lett, 2011):

How the values were obtained:
[1] = molecular target: T1, TGF-beta receptor type-1 (Homo sapiens, UniProt P36897); assay: Inhibition of TGF-beta1 signaling in human HEK293 cells transfected with luciferase and FAST-2 gene expression vector A3-LUX after 16 hrs by luciferase reporter gene assay; format: cell-based
T1 sequence (P36897 whole entry): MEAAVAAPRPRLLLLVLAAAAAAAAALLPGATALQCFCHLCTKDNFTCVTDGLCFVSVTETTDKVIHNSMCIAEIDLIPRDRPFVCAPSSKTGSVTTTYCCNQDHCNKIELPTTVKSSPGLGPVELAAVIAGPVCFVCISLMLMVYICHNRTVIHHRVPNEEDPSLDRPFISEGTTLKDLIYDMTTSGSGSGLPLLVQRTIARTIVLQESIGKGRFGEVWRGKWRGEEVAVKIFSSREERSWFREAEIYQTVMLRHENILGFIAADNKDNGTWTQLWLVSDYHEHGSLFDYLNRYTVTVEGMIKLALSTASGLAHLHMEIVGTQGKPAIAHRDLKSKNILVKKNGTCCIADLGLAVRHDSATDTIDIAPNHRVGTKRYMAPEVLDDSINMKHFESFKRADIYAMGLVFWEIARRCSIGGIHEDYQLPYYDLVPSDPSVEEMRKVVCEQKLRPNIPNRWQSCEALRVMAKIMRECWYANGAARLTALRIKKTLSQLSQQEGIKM

[2] = molecular target: T2, Activin receptor type-1B (Homo sapiens, UniProt P36896); assay: Inhibition of Activin A in human HEK293 cells transfected with luciferase and FAST-2 gene expression vector A3-LUX after 16 hrs by luciferase reporter gene assay; format: cell-based
T2 sequence (P36896 whole entry): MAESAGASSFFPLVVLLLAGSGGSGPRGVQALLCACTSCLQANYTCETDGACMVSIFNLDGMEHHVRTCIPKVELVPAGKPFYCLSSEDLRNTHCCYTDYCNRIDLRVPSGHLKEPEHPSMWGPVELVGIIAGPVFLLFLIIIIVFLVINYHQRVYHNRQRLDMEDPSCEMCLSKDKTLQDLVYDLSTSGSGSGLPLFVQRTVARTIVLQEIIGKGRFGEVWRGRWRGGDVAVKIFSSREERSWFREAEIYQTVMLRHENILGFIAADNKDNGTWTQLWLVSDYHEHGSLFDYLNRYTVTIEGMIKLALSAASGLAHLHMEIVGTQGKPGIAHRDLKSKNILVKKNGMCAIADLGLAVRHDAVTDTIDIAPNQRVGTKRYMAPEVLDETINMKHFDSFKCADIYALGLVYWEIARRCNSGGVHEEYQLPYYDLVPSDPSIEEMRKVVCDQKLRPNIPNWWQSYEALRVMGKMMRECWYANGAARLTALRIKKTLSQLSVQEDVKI

SMILES	IC50 [1]	IC50 [2]
c1ccc(-c2n[nH]cc2-c2ccnc(-n3cccn3)c2)nc1	77 nM	
c1ccc(-c2n[nH]cc2-c2ccnc(-n3ccnc3)c2)nc1	88 nM	
CN1CCN(c2ccc(-c3cc(-c4c[nH]nc4-c4ccccn4)ccn3)cn2)CC1	32 nM	

More lines, now with the values ahead:

IC50 [1]	IC50 [2]	SMILES
68 nM		Cn1cc(-c2cc(-c3c[nH]nc3-c3ccccn3)ccn2)cn1
11 nM		CN(C)CCCOc1ccc(-c2cc(-c3c[nH]nc3-c3ccccn3)ccn2)cn1
	> 1000 nM	O=C(NC1CCOCC1)c1ccc(-c2cc(-c3c[nH]nc3-c3ccccn3)ccn2)cc1
19 nM		CN(C)CCOc1ccc(-c2cc(-c3c[nH]nc3-c3ccccn3)ccn2)cc1
